Assay results reported in PubChem BioAssay AID1902 (Broad Institute, 2009).
Active and inactive are the calls of the source.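 Rule for the calls: active = EC50 no more than a set limit of log units above the highest dose; inactive = the rest.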

Target: S. pyogenes SKKanGAS, kanamycin survival, BacTiterGlo, 6 h
Experiment: SKKanGAS survival reduction under kanamycin, dose response, streptokinase promoter inhibitor project, SKKanGAS strain, luminescence, dose confirmation (AID 1902);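 note: lower survival reflects blocked streptokinase promoter driving kanamycin resistance gene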

How did the EC50 turn out when O=C(Nc1cccc(Cl)c1N1CCCC1)c1cc2ccccc2o1 was run?
Its EC50 is 4.81 µM.

How did the EC50 turn out when O=C(NC(=S)NNC(=O)c1ccccc1[N+](=O)[O-])c1ccc(Br)cc1 was run?
The EC50 was 2.24 µM.

COc1ccc(Sc2ccc(NC(=O)c3ccccc3Cl)cc2C#N)cc1 was tested. Which EC50 did it give?
Its EC50 is 2.51 µM.

Which EC50 does the source give for CCCSc1cc(N2CCCC2)nc(-c2ccccc2)n1 here?
Its EC50 is 6.8 µM.

For COc1ccc(-c2cc3ncnc(Cl)c3s2)cc1, which EC50 is on record?
Its EC50 is 7.15 µM.

With CC1CCCC(C)N1c1nnc(NC(=O)c2cc(-c3ccc(Br)cc3)on2)s1 (stereo not drawn) as the compound, how does the EC50 read?
Its EC50 is 2.79 µM.

How did the EC50 turn out when Cc1ccc2nc(Nc3nc(-c4ccccc4)cc(=O)[nH]3)nc(C)c2c1 was run?
The EC50 was 2.64 µM.

Cc1n[nH]c(C)c1CCCOc1ccccc1 was tested. Which EC50 did it give?
The EC50 was 5.14 µM.

Which EC50 does the source give for CO/N=C(/C(=O)N[C@@H]1C(=O)N2C(C(=O)O)=CCS[C@H]12)c1cnc(N)s1 here?
The EC50 was < 0.06 µM.

For COc1ccc(/C=N/Nc2cc(C)nc(-n3nc(C)cc3C)n2)c(OC)c1, which EC50 is on record?
The EC50 was 7.93 µM.

How did the EC50 turn out when CC1CCN(c2nc3ccccc3nc2C(C#N)C(=O)NC2CCCCC2)CC1 (stereo not drawn) was run?
The EC50 was 1.9 µM.

Which EC50 does the source give for CN(Cc1cnc2nc(N)nc(N)c2n1)c1ccc(C(=O)N[C@@H](CCC(=O)O)C(=O)O)cc1 here?
The EC50 was 0.61 µM.

Which EC50 does the source give for C/C(Cl)=C\Cn1c(O)c(N=NC(N)=S)c2cc(Br)ccc21 here?
Its EC50 is 1.36 µM.

Which EC50 does the source give for O=C(CSc1ccc(Cl)cc1)NC1=NN(c2ccccc2)C(=O)C1 here?
Its EC50 is 5.54 µM.

For CCOc1cc(/C=N/Nc2cccc(C(=O)O)c2)ccc1OC(=O)c1ccccc1, which EC50 is on record?
Its EC50 is 5.18 µM.

Which EC50 does the source give for N#CC1=C(N)OC2=C(CCc3ccccc32)C1c1ccccc1Cl (stereo not drawn) here?
Its EC50 is 3.82 µM.

With CCc1c(C)c(C#N)c2[nH]c3ccccc3n2c1=S as the compound, how does the EC50 read?
The EC50 was 14.1 µM.

With O=C1N/C(=N\N=C\c2cccnc2)SC1Cc1ccc(SC(F)F)cc1 (stereo not drawn) as the compound, how does the EC50 read?
Its EC50 is 3.08 µM.

With Cc1nc2c(C(=O)Nc3ccc(N4CCCC(O)C4)cc3)snc2c(=O)[nH]1 (stereo not drawn) as the compound, how does the EC50 read?
The EC50 was 4.46 µM.

How did the EC50 turn out when Cc1csc2c(N3CCN(C(=O)Nc4ccc(Cl)c(Cl)c4)CC3)ncnc12 was run?
Its EC50 is 2.99 µM.

CN(C)c1nc(SCc2ccccc2Cl)nc2c1CCCC2 was tested. Which EC50 did it give?
The EC50 was 6.27 µM.

For Cc1cc(Oc2cnn(C(C)(C)C)c(=O)c2Cl)cc(C(C)C)c1, which EC50 is on record?
Its EC50 is 4.37 µM.

Cc1cc(C)c(CSc2ncc(-c3ccc([N+](=O)[O-])cc3)[nH]2)c(C)c1 was tested. Which EC50 did it give?
Its EC50 is 4.19 µM.

For Cc1ccc(/C=C2/Sc3ccc(C(=O)N4CCC5(CC4)OCCO5)cc3NC2=O)cc1, which EC50 is on record?
The EC50 was 5.88 µM.

For Cn1cccc1C(=O)Nc1nc(-c2ccccn2)cs1, which EC50 is on record?
The EC50 was 12.4 µM.

With COc1ccc(-c2oc(NC(=O)CSc3ncn[nH]3)c(C#N)c2-c2ccc(OC)cc2)cc1 as the compound, how does the EC50 read?
Its EC50 is 3.61 µM.

CCN(CC)c1ccc(C(=O)OCc2cc(=O)oc3cc(O)ccc23)cc1 was tested. Which EC50 did it give?
The EC50 was 15.3 µM.

For CS(=O)(=O)Nc1ccc(C2=NN(C(=O)C3CCCCC3)C(c3cccs3)C2)cc1 (stereo not drawn), which EC50 is on record?
Its EC50 is 3.94 µM.

Cc1ccc(NC(=S)NC(=O)c2ccc(F)cc2)cc1S(=O)(=O)Nc1cccc(Cl)c1 was tested. Which EC50 did it give?
The EC50 was 2.19 µM.

Which EC50 does the source give for CCn1c(COc2ccc(C)cc2)nnc1SCc1ccc(C#N)cc1 here?
The EC50 was > 15 µM (inactive).

How did the EC50 turn out when O=C(Oc1cccc2c(O)cccc12)c1ccccc1 was run?
Its EC50 is > 15 µM (inactive).

With N#Cc1c(NC(=S)NC(=O)C2CCCC2)sc2c1CCCCC2 as the compound, how does the EC50 read?
The EC50 was 6.33 µM.

With Cc1noc(NS(=O)(=O)c2ccc(NC(=O)c3oc4ccc(Cl)cc4c3C)cc2)c1C as the compound, how does the EC50 read?
Its EC50 is 6.63 µM.

How did the EC50 turn out when Cc1c(C(=O)NNC(=S)NCc2ccc(Cl)cc2)oc2ccccc12 was run?
The EC50 was 2.17 µM.

COc1ccc(/C=C/C(=O)NC(=S)N2CCN(c3ccccc3OC)CC2)cc1 was tested. Which EC50 did it give?
Its EC50 is > 15 µM (inactive).

Which EC50 does the source give for O=[N+]([O-])c1ccc(O)c(N=Cc2sc3ccccc3c2O)c1 here?
The EC50 was 2.97 µM.

Which EC50 does the source give for COc1cccc(C(=O)N2C(C(=O)O)CSC2c2ccccc2Cl)c1 (stereo not drawn) here?
Its EC50 is > 15 µM (inactive).

How did the EC50 turn out when CC(C)N1CCc2c(sc(NC(=O)c3ccc(S(=O)(=O)N(C)CC4CCCO4)cc3)c2C(N)=O)C1 (stereo not drawn) was run?
Its EC50 is > 15 µM (inactive).

How did the EC50 turn out when Cc1ccc(Sc2cc(C)nc(-c3ccccn3)n2)cc1 was run?
The EC50 was 12.4 µM.

Which EC50 does the source give for COc1ccc(CCNC(=O)c2cc(-c3ccc(Cl)c(Cl)c3)oc2C)cc1 here?
Its EC50 is 12.2 µM.

Cc1cc(C)cc(C(=O)NC2C(=O)N3C(C(=O)O)=C(CSc4nnc(C)s4)CSC23)c1 (stereo not drawn) was tested. Which EC50 did it give?
Its EC50 is 0.38 µM.

With CCCCCCCn1c(=O)c(C(=O)Nc2cnccn2)c(O)c2ccccc21 as the compound, how does the EC50 read?
Its EC50 is 2.16 µM.

For CCN1C(=O)/C(=C\c2ccc(-c3ccc([N+](=O)[O-])cc3OC)o2)SC1=Nc1cccc(C(=O)O)c1, which EC50 is on record?
Its EC50 is 3.57 µM.

For FC(F)(F)c1ccc(C2[C@H]3CN(Cc4cccnc4)[C@H](c4ccccc4)C34CC2(c2cccnc2)C4)cc1 (stereo partly drawn), which EC50 is on record?
Its EC50 is 5.15 µM.

O=c1[nH]c(CN2CC=C(c3ccccc3)CC2)nc2scc(-c3ccccc3)c12 was tested. Which EC50 did it give?
The EC50 was 3.17 µM.

For CCOC(=O)c1cccc(NC(=S)N2CCN(c3ncc4c(=O)c(C(=O)O)cn(CC)c4n3)CC2)c1, which EC50 is on record?
Its EC50 is 6.28 µM.

Which EC50 does the source give for CCOC(=O)C1=C(C)N=c2s/c(=C\c3ccc(O)c([N+](=O)[O-])c3)c(=O)n2C1c1ccccc1OC (stereo not drawn) here?
Its EC50 is 6.9 µM.

For CCCCCCCCCCCC(=O)c1c(O)cccc1O, which EC50 is on record?
The EC50 was 1.58 µM.

CCOc1ccc(/C=C2/Sc3ccc(C(=O)N4CCN(C(=O)c5ccco5)CC4)cc3N(C)C2=O)cc1OC was tested. Which EC50 did it give?
The EC50 was 4.19 µM.

Which EC50 does the source give for CC[C@H]1OC(=O)[C@H](C)[C@@H](O[C@H]2C[C@@](C)(OC)[C@@H](O)[C@H](C)O2)[C@H](C)[C@@H](O[C@@H]2O[C@H](C)C[C@H](N(C)C)[C@H]2O)[C@](C)(O)C[C@@H](C)CN(C)[C@H](C)[C@@H](O)[C@]1(C)O here?
The EC50 was < 0.06 µM.

How did the EC50 turn out when Cc1cc(Br)c(OCc2ccc(C(=O)N/N=C3\CC4CC=CC34)cc2)c(Br)c1 (stereo not drawn) was run?
The EC50 was 4 µM.

With CCCC(=O)NC(c1ccco1)c1cc(Cl)c2cccnc2c1O (stereo not drawn) as the compound, how does the EC50 read?
The EC50 was 1.5 µM.

Which EC50 does the source give for CC(=O)N1c2ccc(S(=O)(=O)N3CCC(C(=O)Nc4cc(C)ccn4)CC3)cc2CC1C (stereo not drawn) here?
The EC50 was > 15 µM (inactive).
